Test results: ChEMBL document CHEMBL3885881, “DrugMatrix”

Species: Rattus norvegicus
Assay: DrugMatrix - Regimen: Daily Repeat
Format: toxicity, organism-based, Sprague-Dawley
Set-up: regimen Daily Repeat, gender Male, age 6-8 weeks
Conditions: in vivo, po, route oral GAVAGE, vehicle .5 % CMC; for BASOPHIL / EOSINOPHIL / ERYTHROCYTE COUNT / HEMATOCRIT / LEUKOCYTE COUNT / LYMPHOCYTE / MEAN CORPUSCULAR HEMOGLOBIN / MEAN CORPUSCULAR HEMOGLOBIN CONCENTRATION / MEAN CORPUSCULAR VOLUME / MONOCYTE / NEUTROPHIL / PLATELET COUNT: tissue Blood; for ALANINE AMINOTRANSFERASE / ALBUMIN / ALKALINE PHOSPHATASE / ASPARTATE AMINOTRANSFERASE / BLOOD UREA NITROGEN / CHLORIDE / CHOLESTEROL / CREATINE PHOSPHOKINASE / CREATININE / GLUCOSE / PHOSPHORUS / POTASSIUM / SODIUM / TOTAL BILIRUBIN / TOTAL PROTEIN: tissue Plasma
[1] = 0 mg/kg, 72 h, dose level Control, time 3 day
[2] = 0 mg/kg, 120 h, dose level Control, time 5 day
[3] = 3 mg/kg, 72 h, dose level Low, time 3 day
[4] = 3 mg/kg, 120 h, dose level Low, time 5 day

For NCCCC(O)(P(=O)(O)O)P(=O)(O)O [ALENDRONIC ACID], the BASOPHIL [1] was 0%, the EOSINOPHIL [1] was 0% and the “ERYTHROCYTE COUNT” value [1] was 6.19 x10E6/uL. The HEMATOCRIT [1] was 36.94%, the “LEUKOCYTE COUNT” value [1] was 11.54 x10E3/uL and the LYMPHOCYTE [1] was 84.8%. For the same compound, the “MEAN CORPUSCULAR HEMOGLOBIN” value [1] was 23.58 pg, the “MEAN CORPUSCULAR HEMOGLOBIN CONCENTRATION” value [1] was 39.44 G/DL and the “MEAN CORPUSCULAR VOLUME” value [1] was 59.76 fL. The MONOCYTE [1] was 1.4%, the NEUTROPHIL [1] was 13.8% and the “PLATELET COUNT” value [1] was 1068.8 x10E3/uL. The “ALANINE AMINOTRANSFERASE” value [1] was 38.17 u/L, the ALBUMIN [1] was 3.88 G/DL and the “ALKALINE PHOSPHATASE” value [1] was 391.33 u/L. The “ASPARTATE AMINOTRANSFERASE” value [1] was 69.83 u/L, the “BLOOD UREA NITROGEN” value [1] was 15 mg/dL and the CHLORIDE [1] was 104.17 MEQ/L. The CHOLESTEROL [1] was 72.17 mg/dL, the “CREATINE PHOSPHOKINASE” value [1] was 174.33 u/L and the CREATININE [1] was 0.58 mg/dL. The GLUCOSE [1] was 192.67 mg/dL, the PHOSPHORUS [1] was 10.52 mg/dL and the POTASSIUM [1] was 6.8 MEQ/L. The SODIUM [1] was 149.67 MEQ/L, the “TOTAL BILIRUBIN” value [1] was 0.78 mg/dL and the “TOTAL PROTEIN” value [1] was 6.28 G/DL. For the same compound, the BASOPHIL [2] was 0%, the EOSINOPHIL [2] was 0.17% and the “ERYTHROCYTE COUNT” value [2] was 6.72 x10E6/uL. For the same compound, the HEMATOCRIT [2] was 40.02%, the “LEUKOCYTE COUNT” value [2] was 9.5 x10E3/uL and the LYMPHOCYTE [2] was 87.17%. The “MEAN CORPUSCULAR HEMOGLOBIN” value [2] was 23.57 pg, the “MEAN CORPUSCULAR HEMOGLOBIN CONCENTRATION” value [2] was 39.62 G/DL and the “MEAN CORPUSCULAR VOLUME” value [2] was 59.55 fL. The MONOCYTE [2] was 1.67%, the NEUTROPHIL [2] was 11% and the “PLATELET COUNT” value [2] was 1053.67 x10E3/uL. The “ALANINE AMINOTRANSFERASE” value [2] was 26.33 u/L, the ALBUMIN [2] was 4.02 G/DL and the “ALKALINE PHOSPHATASE” value [2] was 316.67 u/L. The “ASPARTATE AMINOTRANSFERASE” value [2] was 61.33 u/L, the “BLOOD UREA NITROGEN” value [2] was 18.67 mg/dL and the CHLORIDE [2] was 108 MEQ/L. The CHOLESTEROL [2] was 65.17 mg/dL, the “CREATINE PHOSPHOKINASE” value [2] was 161.17 u/L and the CREATININE [2] was 0.75 mg/dL. The GLUCOSE [2] was 177.33 mg/dL, the PHOSPHORUS [2] was 9.72 mg/dL and the POTASSIUM [2] was 6.18 MEQ/L. For the same compound, the SODIUM [2] was 150.5 MEQ/L, the “TOTAL BILIRUBIN” value [2] was 0.68 mg/dL and the “TOTAL PROTEIN” value [2] was 6.55 G/DL. For the same compound, the BASOPHIL [3] was 0%, the EOSINOPHIL [3] was 0% and the “ERYTHROCYTE COUNT” value [3] was 5.67 x10E6/uL. The HEMATOCRIT [3] was 34.63%, the “LEUKOCYTE COUNT” value [3] was 9.73 x10E3/uL and the LYMPHOCYTE [3] was 86.33%. The “MEAN CORPUSCULAR HEMOGLOBIN” value [3] was 24.23 pg, the “MEAN CORPUSCULAR HEMOGLOBIN CONCENTRATION” value [3] was 39.67 G/DL and the “MEAN CORPUSCULAR VOLUME” value [3] was 61.13 fL. The MONOCYTE [3] was 1.33%, the NEUTROPHIL [3] was 12.33% and the “PLATELET COUNT” value [3] was 1035.67 x10E3/uL. For the same compound, the “ALANINE AMINOTRANSFERASE” value [3] was 34 u/L, the ALBUMIN [3] was 3.77 G/DL and the “ALKALINE PHOSPHATASE” value [3] was 322.33 u/L. For the same compound, the “ASPARTATE AMINOTRANSFERASE” value [3] was 69 u/L, the “BLOOD UREA NITROGEN” value [3] was 16 mg/dL and the CHLORIDE [3] was 105.67 MEQ/L. For the same compound, the CHOLESTEROL [3] was 63 mg/dL, the “CREATINE PHOSPHOKINASE” value [3] was 139.33 u/L and the CREATININE [3] was 0.6 mg/dL. For the same compound, the GLUCOSE [3] was 171 mg/dL, the PHOSPHORUS [3] was 10.3 mg/dL and the POTASSIUM [3] was 6.6 MEQ/L. The SODIUM [3] was 150 MEQ/L, the “TOTAL BILIRUBIN” value [3] was 0.57 mg/dL and the “TOTAL PROTEIN” value [3] was 5.97 G/DL. The BASOPHIL [4] was 0%, the EOSINOPHIL [4] was 0.67% and the “ERYTHROCYTE COUNT” value [4] was 6.7 x10E6/uL. The HEMATOCRIT [4] was 40.67%, the “LEUKOCYTE COUNT” value [4] was 10.57 x10E3/uL and the LYMPHOCYTE [4] was 75%. The “MEAN CORPUSCULAR HEMOGLOBIN” value [4] was 24.1 pg, the “MEAN CORPUSCULAR HEMOGLOBIN CONCENTRATION” value [4] was 39.7 G/DL and the “MEAN CORPUSCULAR VOLUME” value [4] was 60.77 fL. The MONOCYTE [4] was 3%, the NEUTROPHIL [4] was 21.33% and the “PLATELET COUNT” value [4] was 904.33 x10E3/uL. For the same compound, the “ALANINE AMINOTRANSFERASE” value [4] was 30.67 u/L, the ALBUMIN [4] was 4.1 G/DL and the “ALKALINE PHOSPHATASE” value [4] was 352.33 u/L. For the same compound, the “ASPARTATE AMINOTRANSFERASE” value [4] was 64 u/L, the “BLOOD UREA NITROGEN” value [4] was 14.67 mg/dL and the CHLORIDE [4] was 106 MEQ/L. For the same compound, the CHOLESTEROL [4] was 64.33 mg/dL, the “CREATINE PHOSPHOKINASE” value [4] was 130.33 u/L and the CREATININE [4] was 0.77 mg/dL. For the same compound, the GLUCOSE [4] was 191 mg/dL, the PHOSPHORUS [4] was 10.83 mg/dL and the POTASSIUM [4] was 6.4 MEQ/L. For the same compound, the SODIUM [4] was 150.67 MEQ/L, the “TOTAL BILIRUBIN” value [4] was 0.83 mg/dL and the “TOTAL PROTEIN” value [4] was 6.73 G/DL.
